Measured values from patent US12281057B2 (VERTEX PHARMACEUTICALS INCORPORATED, priority 2017, dated 2025).
pIC50: −log10 of the molar value.

Target: truncated form of human NaV 1.8 with full channel activity (Homo sapiens, UniProt Q9Y5Y9)
Assay: E-VIPR Assay Method B for detecting and measuring Nav inhibition (HEK cells, membrane potential FRET dyes, electrical stimulation)
Format: cell-based
Conditions: HEK cells expressing human NaV 1.8, Table 20B, read-out: Nav 1.8 MedChem Optical Assay EVIPR Assay Method B HS IC50
Text: [formula] where X is the ratio response of the test compound. […] E-VIPR Assay Method B for Detecting and Measuring Nav Inhibition Properties Sodium ion channels are voltage-dependent proteins that can be activated by inducing membrane voltage changes by applying electric fields. The electrical stimulation instrument and methods of use, referred to as E-VIPR, are described in International Publication No. WO 2002/008748 A3 and C.-J. Huang et al. Characterization of voltage-gated sodium channel blockers by electrical stimulation and fluorescence detection of membrane potential, 24 Nature Biotech. 439-46 (2006), both of which are incorporated by reference in their entirety. The instrument comprises a microtiter plate handler, an optical system for exciting the coumarin dye while simultaneously recording the coumarin and oxonol emissions, a waveform generator, a current- or voltage-controlled amplifier, and parallel electrode pairs that are inserted into assay plate wells. Under integrated computer control, this instrument passes user-programmed electrical stimulus protocols to cells within the wells of the microtiter plate. […] Sigma #F4135), 1% NEAA (Non-Essential Amino Acids, Life Tech #11140), 1% HEPES (Life Tech #15630), 1% Pen-Strep (Penicillin-Streptomycin; […] Cells were expanded in vented cap flasks, with 95% humidity and 5% CO2. Reagents and Stock Solutions: • 100 mg/mL Pluronic F-127 (Sigma #P2443), in dry DMSO • Compound Plates: […] 5% KIR 2.1 Bacmam virus (produced in-house), prepared as described in Section 3.3 of J. A. Fornwald et al., Gene Expression in Mammalian Cells Using BacMam, a Modified Baculovirus System, 1350 Methods in Molecular Biology 95-116 (2016), the entire contents of which are incorporated by reference. • 5 mM DiSBAC6(3) (a voltage sensitive oxonol acceptor) (Aurora #00-100-010) in dry DMSO • 5 mM CC2-DMPE (a membrane-bound coumarin phospholipid FRET donor) (Aurora #00-100-008) in dry DMSO • 89 mM VABSC-1 in H2O. […] The solution was made by adding 10% Pluronic F127 stock equal to combined volumes of CC2-DMPE and DiSBAC6(3). The order of preparation was first mix Pluronic and CC2-DMPE, then add DiSBAC6(3), then while vortexing add Bath1/β-Cyclodextrin. […] Assay Protocol: […] Final DMSO concentration for all wells in the assay was 0.625% (0.75% DMSO was supplemented to the Compound Loading Buffer for a final DMSO concentration of 0.625%). 2) Hexyl Dye Solution was prepared. 3) Cell plates were prepared. On the day of the assay, the media was aspirated, and the cells were washed three times with 80 μL of Bath-1 buffer, maintaining 25 μL residual volume in each well. 4) 25 μL per well of Hexyl Dye Solution was dispensed into the cell plates. The cells were incubated for 20 minutes at room temp or ambient conditions in darkness. 5) 80 μL per well of Compound Loading Buffer was dispensed into compound plates. […] The mixture was incubated for 30 minutes at room temp/ambient conditions. […] A pre-stimulus recording was performed for 0.5 seconds to obtain the un-stimulated intensities baseline. The stimulatory waveform was followed by 0.5 seconds of post-stimulation recording to examine the relaxation to the resting state. Data Analysis: Data were analyzed and reported as normalized ratios of emission intensities measured in the 460 nm and 580 nm channels. The response as a function of time was reported as the ratios obtained using the following formula: [formula] The data were further reduced by calculating the initial (Ri) and final (Rf) ratios. These were the average ratio values during part or all of the pre-stimulation period and during sample points during the stimulation period. The fluorescence ratio (Rf/Ri) was then calculated and reported as a function of time. Control responses were obtained by performing assays in the presence of the positive control, and in the absence of pharmacological agents (DMSO vehicle negative control). Responses to the negative (N) and positive (P) controls were calculated as above. […]

truncated form of human NaV 1.8 with full channel activity, sequence (Q9Y5Y9 126-1722 limits assumed): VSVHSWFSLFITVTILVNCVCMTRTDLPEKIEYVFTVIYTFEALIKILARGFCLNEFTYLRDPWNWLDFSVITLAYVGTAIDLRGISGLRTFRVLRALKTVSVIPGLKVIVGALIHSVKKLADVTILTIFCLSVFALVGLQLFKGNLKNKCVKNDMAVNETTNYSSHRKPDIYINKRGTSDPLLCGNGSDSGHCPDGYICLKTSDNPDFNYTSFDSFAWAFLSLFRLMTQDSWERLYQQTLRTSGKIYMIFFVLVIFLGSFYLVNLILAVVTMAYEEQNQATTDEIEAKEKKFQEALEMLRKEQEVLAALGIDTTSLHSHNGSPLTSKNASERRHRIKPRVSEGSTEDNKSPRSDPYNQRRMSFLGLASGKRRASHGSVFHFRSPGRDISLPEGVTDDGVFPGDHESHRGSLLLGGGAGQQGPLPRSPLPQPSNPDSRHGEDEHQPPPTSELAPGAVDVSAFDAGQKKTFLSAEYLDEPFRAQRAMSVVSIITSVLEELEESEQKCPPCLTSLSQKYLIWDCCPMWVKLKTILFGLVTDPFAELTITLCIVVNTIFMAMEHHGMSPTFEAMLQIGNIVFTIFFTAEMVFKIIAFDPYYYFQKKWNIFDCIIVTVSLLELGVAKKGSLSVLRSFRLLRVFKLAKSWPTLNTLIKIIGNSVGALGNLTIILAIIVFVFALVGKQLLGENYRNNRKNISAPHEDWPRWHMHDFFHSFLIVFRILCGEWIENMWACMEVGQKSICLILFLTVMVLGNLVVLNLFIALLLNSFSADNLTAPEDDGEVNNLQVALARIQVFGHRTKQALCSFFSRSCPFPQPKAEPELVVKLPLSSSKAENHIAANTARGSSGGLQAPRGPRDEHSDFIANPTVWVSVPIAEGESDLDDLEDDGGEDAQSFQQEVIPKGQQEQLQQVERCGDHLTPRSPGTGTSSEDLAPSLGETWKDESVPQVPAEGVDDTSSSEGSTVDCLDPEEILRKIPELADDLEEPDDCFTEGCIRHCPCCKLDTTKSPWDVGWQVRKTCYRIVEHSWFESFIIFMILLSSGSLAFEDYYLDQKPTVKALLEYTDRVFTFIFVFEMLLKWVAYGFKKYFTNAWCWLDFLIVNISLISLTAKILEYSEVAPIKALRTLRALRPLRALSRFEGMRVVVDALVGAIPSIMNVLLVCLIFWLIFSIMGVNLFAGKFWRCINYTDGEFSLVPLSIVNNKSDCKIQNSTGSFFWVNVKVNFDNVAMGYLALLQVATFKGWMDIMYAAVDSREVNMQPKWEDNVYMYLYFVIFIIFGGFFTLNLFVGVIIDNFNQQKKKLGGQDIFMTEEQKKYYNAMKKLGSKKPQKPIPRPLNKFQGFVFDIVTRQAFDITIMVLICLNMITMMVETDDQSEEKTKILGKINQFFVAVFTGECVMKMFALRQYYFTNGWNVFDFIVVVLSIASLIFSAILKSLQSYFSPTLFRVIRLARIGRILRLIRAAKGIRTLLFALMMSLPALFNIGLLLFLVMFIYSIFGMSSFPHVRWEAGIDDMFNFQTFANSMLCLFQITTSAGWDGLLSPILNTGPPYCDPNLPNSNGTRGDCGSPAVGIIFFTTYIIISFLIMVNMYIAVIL

| Structure (SMILES) | pIC50 |
| --- | --- |
| Cc1cc(F)ccc1Oc1cc(Cl)c(Cl)cc1C(=O)Nc1cccc(C(N)=O)c1 [Compound 267, N-(3-carbamoylphenyl)-4,5-dichloro-2-(4-fluoro-2-methyl-phenoxy)benzamide] | 8.15 |
| NC(=O)c1cccc(NC(=O)c2cc(C(F)(F)F)ccc2Oc2ccccc2Cl)c1 [Compound 283, N-(3-carbamoylphenyl)-2-(2-chlorophenoxy)-5-(trifluoromethyl)benzamide] | 7.09 |
| COc1ccc(NC(=O)c2c(Oc3ccc(F)cc3Cl)cccc2C(F)(F)F)cc1C(N)=O [Compound 253, N-(3-carbamoyl-4-methoxyphenyl)-2-(2-chloro-4-fluorophenoxy)-6-(trifluoromethyl)benzamide] | 6.06 |

Results, then the compound that gave them:

| pIC50 | Structure (SMILES) |
| --- | --- |
| 7.38 | COc1ccc(Oc2ccc(C(F)(F)F)cc2C(=O)Nc2cccc(C(N)=O)c2)c(C)c1 [Compound 280, N-(3-carbamoylphenyl)-2-(4-methoxy-2-methylphenoxy)-5-(trifluoromethyl)benzamide] |
| 7.24 | COc1ccc(Oc2cc(C(F)(F)F)ccc2C(=O)Nc2cccc(C(N)=O)c2)c(OC)c1 [Compound 301, N-(3-carbamoylphenyl)-2-[2,4-(dimethoxy)phenoxy]-4-(trifluoromethyl)benzamide] |
| 7.70 | COc1cc(Cl)ccc1Oc1ccc(C(F)(F)F)cc1C(=O)Nc1cccc(C(N)=O)c1 [Compound 286, N-(3-carbamoylphenyl)-2-(4-chloro-2-methoxyphenoxy)-5-(trifluoromethyl)benzamide] |
